Test results: patent publication US8445510B2, “Fused bicyclic kinase inhibitors” (OSI Pharmaceuticals, LLC, priority 2011, dated 2013)

Tests used:
MKN45 cells = assay: MKN45 cell proliferation assay (CellTiter-Glo); type: cell-based; conditions: Homo sapiens, MKN-45, 72 h; MKN45 cell line; 3 days incubation; at least duplicate experiments; read-out: Prolif. IC50
RON = target: T1, RON (Homo sapiens, UniProt Q04912); assay: sfRON cell mechanistic assay (HeLa), phosphorylated RON ELISA; type: cell-based; conditions: HeLa cells transfected with sfRON; inhibition of phosphorylated RON; four hours incubation; at least duplicate experiments; read-out: sfRON mech IC50
T1 sequence (Q04912 913-1400): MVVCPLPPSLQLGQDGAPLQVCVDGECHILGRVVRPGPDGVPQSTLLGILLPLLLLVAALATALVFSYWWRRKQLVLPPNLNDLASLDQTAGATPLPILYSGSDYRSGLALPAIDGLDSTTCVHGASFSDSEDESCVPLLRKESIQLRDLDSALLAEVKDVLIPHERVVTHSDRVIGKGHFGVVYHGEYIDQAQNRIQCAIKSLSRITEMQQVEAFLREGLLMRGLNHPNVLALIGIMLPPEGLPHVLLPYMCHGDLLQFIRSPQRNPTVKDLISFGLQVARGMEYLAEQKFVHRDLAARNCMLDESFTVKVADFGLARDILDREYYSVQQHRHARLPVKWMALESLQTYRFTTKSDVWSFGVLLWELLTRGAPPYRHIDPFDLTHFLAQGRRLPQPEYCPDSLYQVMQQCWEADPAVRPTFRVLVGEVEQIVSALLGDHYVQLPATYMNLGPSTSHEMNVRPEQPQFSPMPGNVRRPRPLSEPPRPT
Method in brief: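 HeLa cells transiently transfected with sfRON plasmid, then exposed 4 h at 37 °C to a 6-point compound series (typically 10 μM to 3 nM, 0.5% DMSO). Phospho-RON (pY1238/1239) in lysates measured by sandwich ELISA with luminescence. IC50 from 4-parameter fit of percent-of-DMSO-control data, at least duplicate runs.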

## COc1ccc(F)c(Cl)c1[C@@H](C)c1c[nH]c2ncc(-c3cn([C@H]4CC[C@H](C(=O)N(C)C)CC4)nc3C)cc12 [Example 23, trans-4-(4-{3-[(1S)-1-(2-chloro-3-fluoro-6-methoxyphenyl)ethyl]-1H-pyrrolo[2,3-b]pyridin-5-yl}-3-methyl-1H-pyrazol-1-yl)-N,N-dimethylcyclohexanecarboxamide]
MKN45 cells
  IC50: ≤ 50 nM
RON
  IC50: ≤ 200 nM

## COc1ccc(F)c(Cl)c1[C@@H](C)c1c[nH]c2ncc(-c3cn([C@H]4CC[C@H](O)CC4)nc3C)cc12 [Example 28, trans-4-(4-{3-[(1S)-1-(2-Chloro-3-fluoro-6-methoxyphenyl)ethyl]-1H-pyrrolo[2,3-b]pyridin-5-yl}-3-methyl-1H-pyrazol-1-yl)cyclohexanol]
MKN45 cells
  IC50: ≤ 50 nM
RON
  IC50: ≤ 200 nM

## CNC(=O)[C@H]1CC[C@H](n2nc(C)c(-c3cnc4[nH]cc([C@H](C)c5c(OC)ccc(F)c5Cl)c4c3)c2C)CC1 [Example 24, trans-4-(4-{3-[(1S)-1-(2-Chloro-3-fluoro-6-methoxyphenyl)ethyl]-1H-pyrrolo[2,3-b]pyridin-5-yl}-3,5-dimethyl-1H-pyrazol-1-yl)-N-methylcyclohexanecarboxamide]
MKN45 cells
  IC50: ≤ 50 nM
RON
  IC50: 200 to 1000 nM
